# Values joined by “and” are separate entries in the source; they are usually repeats but may differ in a detail not shown here. Equal entries are not always repeated. Where two headings read alike, the source gives them in different places.
# Experiments:
# Format in all cases: cell-based
# hTRPV1 = target: T1, hTRPV1 (Homo sapiens, UniProt Q8NER1); experiment: TRPV1 HCS, Fluo-8 calcium flux, capsaicin activation, CHO cells expressing hTRPV1
# T1 construct: CDS of NM_080704.4, inserted into the multiple cloning site of pcDNA3.1(+); host or cells: CHO/hKv7.2/3
# Description: Cell culture: Chinese hamster ovary (CHO) cell-line cells with constitutive expression of human hTRPV1 channels (B'SYS GmbH, Switzerland) were cultured in F-12 nutrient mixture (Biological Industries) supplemented with 10% fetal bovine serum (Biological Industries) and 1% penicillin-streptomycin (Biological Industries) in a humidified 5% CO2 incubator at 37° C. To maintain the stable expression of hTRPV1, antibiotic selection (G418 500 μg/ml) was applied.
# High content screen (HCS) using Fluo-8 No Wash Calcium flux Assay Kit: Fluo-8 No Wash Calcium Assay Kit (Abcam, ab112129) was used with CHO stably or transiently expressing TRPV1 to screen compounds against the hTRPV1 ion channel target. The cells were pre-loaded with Fluo-8AM which is membrane permeable. The AM groups of the Fluo-8AM were then being cleaved by intracellular esterase, trapping the Fluo8 in the cell. […] The relative fluorescence signal was calculated following background subtraction, comparing the fluorescence at each time point to its maximal level measured following Ionomycin application in the end.
# According to optimization process to achieve uniform and consistent screening condition of molecules the following protocol was established: Cells were seeded in 384-well, black-walled, clear-bottomed, at a density of 5,000 cells per well 24 h before the assay conductance and incubated overnight in their normal growth medium. On the experiment day the medium was replaced in each well with HBSS, HEPES, and compound/vehicle (0.2% DMSO). Dye solution (prepared according to the manufacturer) was added to the wells and plates are incubated for 1.5 h light-protected in room temperature. The Tecan Spark plate reader injectors were then primed with capsaicin and Ionomycin for channel activation and data normalization, respectively. […] To calculate IC50 values, the data was fitted to sigmoidal regression line using Prism GraphPad. The fitting was constrained to a minimum of 0 and a maximal response of about 1 unless a different maximal response could be identified.
# hKv7.2/3 = target: T2, hKv7.2/3 (Homo sapiens, UniProt O43525+O43526); experiment: Kv7.2/7.3 HCS, FLIPR potassium (thallium) assay, CHO/hKv7.2/3
# T2 construct: host or cells: CHO
# Procedure, shortened: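 CHO cells stably expressing human Kv7.2/3, loaded with Tl+ indicator dye 1.5 h at room temperature in HBSS/HEPES with compound (0.2% DMSO). Channels activated by injection of 1 mM Tl2SO4 plus 5 mM K2SO4; fluorescence increase reflects Tl+ influx. EC50 from sigmoidal fit constrained to minimum 1, maximum ~3.6.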
# rat DRG neurons = experiment: Rat DRG neurons, capsaicin-evoked action potential firing; settings: for IC50: capsaicin 1 μM, read-out: Rat DRGs, CAP IC50
# Excerpt: rDRGs isolation and primary cell culture: Briefly, rat DRGs from all spinal levels were carefully removed and collected in HBSS on ices, connective tissue of the epineurium surrounding the ganglion was removed and cells were dissociated using Collagenase-II and trypsin dissociation solutions. DRGs were dissociated further, passed through glass Pasteur pipettes to obtain single cells. Then dissociation solution was changed to 5% FBS containing DRG neuronal culture medium and plated onto ECL coated 12 mm cover glass.
# Additional rDRGs experiments were performed using Lonza primary neonatal rat (Sprague Dawley neonatal; P2,3) DRG neurons (R-DRG-505, Lonza) plated and cultured according to the manufacturer.
# Electrophysiology: Cells were used for electrophysiological recording at least 48 hours following rDRG isolation or at least 5 days following cryopreserved rDRG thawing. Round small neurons (20-40 μm in diameter) were selected for electrophysiology recordings, to select for small nociceptive neurons that propagate pain sensation in vivo and that are expressing both Kv7.2/3 and TRPV1 targets. Membrane excitability was monitored using current clamp configuration of the whole-cell patch-clamp technique. Positive current steps of different amplitude were injected (400 ms) to induce spikes trains before and following compound application.
# To assess the potency of compounds using DRG neurons, the inhibitory potency for CAP-evoked action potential (AP) trains was measured. For this purpose, DRG membrane potential was continuously measured, and the following protocol was performed:
# Cells were perfused with vehicle containing bath solution. After 30 seconds, CAP (1 μM) was applied for 6 seconds to activate TRPV1 and stimulate AP trains.
# After 30 seconds of perfusion with bath solution containing only vehicle, perfusion was changed to a bath solution containing compound, and after 3 minutes of compound application, CAP (1 μM) was applied again for 6 seconds to activate TRPV1 and stimulate AP trains.
# Cells perfusion was changed back to bath solution containing only vehicle and after 3 minutes of compound washout, CAP (1 μM) was applied again for 6 seconds to activate TRPV1 and stimulate AP trains.
# To evaluate the drug/control response, the number of AP spikes induced by CAP following incubation with test compound was divided by the average number of control AP spikes induced without compound, before compound incubation, and following its washout.
# [1] = cells expressing TRPV1, read-out: TRPV1 IC50
# [2] = Table 1, read-out: Kv7.2/7.3 IC50
# T2 sequence (O43525 whole entry): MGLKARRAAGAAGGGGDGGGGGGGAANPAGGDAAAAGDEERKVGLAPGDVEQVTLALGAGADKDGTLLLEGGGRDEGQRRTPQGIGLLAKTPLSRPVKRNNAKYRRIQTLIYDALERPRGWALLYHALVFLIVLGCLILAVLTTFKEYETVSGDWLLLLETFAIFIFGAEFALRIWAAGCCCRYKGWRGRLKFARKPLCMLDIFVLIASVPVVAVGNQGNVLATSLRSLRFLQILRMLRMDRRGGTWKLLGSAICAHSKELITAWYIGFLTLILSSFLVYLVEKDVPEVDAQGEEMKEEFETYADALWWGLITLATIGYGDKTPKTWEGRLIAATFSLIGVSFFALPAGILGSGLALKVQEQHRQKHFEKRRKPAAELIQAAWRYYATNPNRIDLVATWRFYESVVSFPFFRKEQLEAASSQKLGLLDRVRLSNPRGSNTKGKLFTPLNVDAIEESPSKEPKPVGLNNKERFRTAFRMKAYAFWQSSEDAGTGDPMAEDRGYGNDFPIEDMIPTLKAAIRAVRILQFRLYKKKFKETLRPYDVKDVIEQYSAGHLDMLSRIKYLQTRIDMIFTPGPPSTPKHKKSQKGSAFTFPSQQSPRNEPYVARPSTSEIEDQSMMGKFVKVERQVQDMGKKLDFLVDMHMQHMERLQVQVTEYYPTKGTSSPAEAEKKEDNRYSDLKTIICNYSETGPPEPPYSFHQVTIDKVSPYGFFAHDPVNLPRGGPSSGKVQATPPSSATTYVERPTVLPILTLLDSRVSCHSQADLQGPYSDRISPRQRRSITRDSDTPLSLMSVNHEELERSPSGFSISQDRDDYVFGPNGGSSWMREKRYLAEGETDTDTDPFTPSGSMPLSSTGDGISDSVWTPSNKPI
# T2 sequence (O43526 whole entry): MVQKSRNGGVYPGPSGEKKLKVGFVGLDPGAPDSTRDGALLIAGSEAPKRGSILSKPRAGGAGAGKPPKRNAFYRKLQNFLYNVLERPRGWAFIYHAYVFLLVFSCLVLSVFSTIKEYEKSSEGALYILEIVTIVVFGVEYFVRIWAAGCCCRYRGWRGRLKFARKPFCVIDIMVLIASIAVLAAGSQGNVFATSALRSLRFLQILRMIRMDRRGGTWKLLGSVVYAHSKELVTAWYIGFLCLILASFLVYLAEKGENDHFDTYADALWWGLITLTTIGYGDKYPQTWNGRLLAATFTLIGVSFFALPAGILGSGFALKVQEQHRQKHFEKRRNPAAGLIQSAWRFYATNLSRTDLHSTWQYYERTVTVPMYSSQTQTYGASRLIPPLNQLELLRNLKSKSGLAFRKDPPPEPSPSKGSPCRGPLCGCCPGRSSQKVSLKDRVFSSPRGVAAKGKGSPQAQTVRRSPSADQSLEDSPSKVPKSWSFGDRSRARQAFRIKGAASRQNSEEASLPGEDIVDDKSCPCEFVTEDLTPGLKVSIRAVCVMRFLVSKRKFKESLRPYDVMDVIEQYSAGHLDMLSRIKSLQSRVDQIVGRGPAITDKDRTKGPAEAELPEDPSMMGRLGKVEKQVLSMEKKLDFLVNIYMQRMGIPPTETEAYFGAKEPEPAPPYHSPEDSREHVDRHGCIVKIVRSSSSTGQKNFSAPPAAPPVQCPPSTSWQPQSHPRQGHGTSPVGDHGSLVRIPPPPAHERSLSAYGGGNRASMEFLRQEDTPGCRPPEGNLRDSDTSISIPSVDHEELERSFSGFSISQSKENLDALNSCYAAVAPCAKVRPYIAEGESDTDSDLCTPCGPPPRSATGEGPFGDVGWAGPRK
# T1 sequence (Q8NER1 whole entry): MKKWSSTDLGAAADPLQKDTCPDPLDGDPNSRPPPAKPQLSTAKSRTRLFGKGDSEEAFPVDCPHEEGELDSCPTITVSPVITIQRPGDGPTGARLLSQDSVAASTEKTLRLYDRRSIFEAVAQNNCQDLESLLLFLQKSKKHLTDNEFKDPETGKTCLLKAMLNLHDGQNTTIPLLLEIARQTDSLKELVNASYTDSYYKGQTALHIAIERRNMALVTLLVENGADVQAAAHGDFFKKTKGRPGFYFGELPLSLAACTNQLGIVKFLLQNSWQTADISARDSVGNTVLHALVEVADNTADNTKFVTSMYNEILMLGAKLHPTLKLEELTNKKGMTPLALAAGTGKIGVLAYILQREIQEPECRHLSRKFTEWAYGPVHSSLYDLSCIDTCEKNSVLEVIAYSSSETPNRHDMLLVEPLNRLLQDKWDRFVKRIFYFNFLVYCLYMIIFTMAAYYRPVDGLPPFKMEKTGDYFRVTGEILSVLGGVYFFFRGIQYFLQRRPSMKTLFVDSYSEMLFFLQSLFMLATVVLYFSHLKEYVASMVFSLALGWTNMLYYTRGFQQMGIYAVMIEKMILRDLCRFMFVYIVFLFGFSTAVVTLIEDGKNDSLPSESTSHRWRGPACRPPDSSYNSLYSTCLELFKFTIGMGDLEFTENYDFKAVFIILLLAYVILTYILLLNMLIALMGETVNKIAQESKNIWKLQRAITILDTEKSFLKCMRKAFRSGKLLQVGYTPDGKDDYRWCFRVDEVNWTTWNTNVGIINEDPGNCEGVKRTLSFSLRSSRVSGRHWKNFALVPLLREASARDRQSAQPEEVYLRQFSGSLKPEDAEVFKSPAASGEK
Compound,IC50 (hTRPV1) [nM],IC50 (hTRPV1; [1]) [nM],EC50 (hKv7.2/3; [2]) [nM],EC50 (hKv7.2/3; read-out: Kv7.2/7.3 EC50) [nM],IC50 (rat DRG neurons),other results
COC[C@@H](CO)NC(=O)Cc1cc(Sc2c(Cl)cc(F)cc2C(C)C)ccc1F [Compound 415],7800,7700,2200,–,–,–
CC(C)c1cc(Cl)cc(Cl)c1C(=O)c1ccc(F)c(CC(=O)NCC(C)(C)O)c1 [Compound 417-4],–,8000,13400,–,–,–
Cc1cn(-c2ccc(F)c(CC(=O)NCC(C)(C)O)c2)c2c(Cl)cc(Cl)cc12 [Compound 421-6],–,2100,1100,2100,< 100 nM,Inhibition of capsaicin induced AP response (rat DRG neurons; 100 nM): 63.4±17.8%; Inhibition of capsaicin induced AP response (rat DRG neurons; 500 nM): 86.5±8.4%; Inhibition of AP response to capsaicin (rat DRG neurons; 2 μM): 97.9±2.1%
Cc1cn(-c2ccc(F)c(CC(=O)NCC(C)(C)O)c2)c2c(Cl)cc(Cl)cc12 [Compound 421],1800,–,–,–,25 nM,EC50 (hKv7.2/3; read-out: hKv7.2/3 EC50 HCS): 824 nM; IC50 (rat DRG neurons; listed as BS421): 25 nM
O=C(Cc1cc(-n2cc(Cl)c3cc(Cl)cc(Cl)c32)ccc1F)NCCO [Compound 627],–,1900,540,500,0.1 nM,IC50 (hTRPV1; read-out: CAP hTRPV1 IC50 HCS): 1900 nM; Kv7.2/3 activation (words) (hKv7.2/3): significant hKv7.2/3 activation even at picomolar concentrations; activation at 0.01 µM (hKv7.2/3; 10 nM range): ~30%; Inhibition of capsaicin-evoked action potential firing (rat DRG neurons; 0.1 nM): about 50%; Inhibition of capsaicin-evoked action potential firing (rat DRG neurons; 1 nM): completely blocked
O=C(Cc1cncc(-n2cc(Cl)c3cc(Cl)cc(Cl)c32)c1)N[C@@H]1COC[C@H]1O [Compound 661],19000,19300,1100,–,0.003 nM and 0.002 nM and < 0.003 nM,IC50 (hTRPV1; read-out: CAP hTRPV1 IC50 HCS): 19100 nM; Kv7.2/3 activation (words) (hKv7.2/3): partial yet potent facilitation of Kv7.2/3 activity; Emax (hKv7.2/3; read-out: Kv7.2/3 maximal opening vs. control): 21%; EC50 (hKv7.2/3; read-out: hKv7.2/3 EC50 HCS): 0.001 nM; IC50 (rat DRG neurons; listed as BS661): 0.002 nM
O=C(Cc1nccc(-n2cc(Cl)c3cc(Cl)cc(Cl)c32)n1)NC1COCC1O (stereo not drawn) [Compound 760],–,–,–,–,0.23 nM,Inhibition of capsaicin-evoked action potential firing (rat DRG neurons; 1 nM): about 90%
"CC(C)c1cc(Cl)cc(Cl)c1Nc1ccc(F)c(CC(=O)NCC(C)(C)O)c1 [NH91, reference compound]",8000,–,–,700,500 nM,–

# — patent US20260327211A1, “MODULATORS OF A POTASSIUM CHANNEL AND OF TRPV1 CHANNEL AND USES THEREOF” (Bsense Bio Therapeutics Ltd., priority 2023, published 2026)
